Experimental data reported in US20100041892A1, “Therapeutic agent for diabetes” (priority 2005, published 2010).

Compound: CCCCCS(=O)(=O)NC(=O)CCCCc1cc(OCCCC)nn1Cc1ccc(Cl)cc1Cl [Example 147, 5-[3-butoxy-1-(2,4-dichlorobenzyl)-1H-pyrazol-5-yl]-N-(pentylsulfonyl)pentanamide]
- melting point: 91 to 93 °C

Compound: CC(C)Oc1cc(CCC(=O)NS(C)(=O)=O)n(Cc2ccc(Cl)cc2Cl)n1 [Example 148, 3-[1-(2,4-dichlorobenzyl)-3-isopropoxy-1H-pyrazol-5-yl]-N-(methylsulfonyl)propanamide]
- melting point: 104 to 105 °C

Compound: CCCCCS(=O)(=O)NC(=O)/C=C/c1cc(OCCOC)nn1Cc1ccc(C(F)(F)F)cc1Cl [Example 149, (2E)-3-[1-[2-chloro-4 (trifluoromethyl)benzyl]-3-(2-methoxyethoxy)-1H-pyrazol-5-yl]-N-(pentylsulfonyl)acrylamide]
- melting point: 130.5 to 132.5 °C

Compound: CCCCOc1cc(/C=C/C(=O)NS(=O)(=O)CCC(C)C)n(Cc2ccc(C(F)(F)F)cc2Cl)n1 [Example 150, (2E)-3-{3-butoxy-1-[2-chloro-4-(trifluoromethyl)benzyl]-1H-pyrazol-5-yl}-N-[(3-methylbutyl)sulfonyl]acrylamide]
- melting point: 89.5 to 90.5 °C

Compound: CC(C)CCS(=O)(=O)NC(=O)/C=C/c1cc(OC2CCOCC2)nn1Cc1ccc(C(F)(F)F)cc1Cl [Example 153, (2E)-3-[1-[2-chloro-4-(trifluoromethyl)benzyl]-3-(tetrahydro-2H-pyran-4-yloxy)-1H-pyrazol-5-yl]-N-[(3-methylbutyl)sulfonyl]acrylamide]
- melting point: 149.5 to 152.5 °C

Compound: CCCCCS(=O)(=O)NC(=O)/C=C/c1cc(OC2CCOCC2)nn1Cc1ccc(C(F)(F)F)cc1Cl [Example 154, (2E)-3-[1-[2-chloro-4-(trifluoromethyl)benzyl]-3-(tetrahydro-2H-pyran-4-yloxy)-1H-pyrazol-5-yl]-N-(pentylsulfonyl)acrylamide]
- melting point: 160.5 to 161 °C

Compound: CC(C)CCS(=O)(=O)NC(=O)CCc1cc(C2CC2)nn1Cc1ccc(C(F)(F)F)cc1Cl [Example 157, 3-{1-[2-chloro-4-(trifluoromethyl)benzyl]-3-cyclopropyl-1H-pyrazol-5-yl}-N-[(3-methylbutyl)sulfonyl]propanamide]
- melting point: 160.5 to 162.5 °C

Compound: CCCCCS(=O)(=O)NC(=O)/C=C/c1ccc(OCCOC)cc1OCC1CCCCC1 [Example 158, (2E)-3-[2-(cyclohexylmethoxy)-4-(2-methoxyethoxy)phenyl]-N-(pentylsulfonyl)acrylamide]
- melting point: 97.5 to 98.3 °C

Compound: CCCCCS(=O)(=O)NC(=O)CCc1ccc(OCCOC)cc1OCC1CCCCC1 [Example 159, 3-[2-(cyclohexylmethoxy)-4-(2-methoxyethoxy)phenyl]-N-(pentylsulfonyl)propanamide]
- melting point: 81 to 82 °C

Compound: CCCCCS(=O)(=O)NC(=O)/C=C/c1ccc(OCCOC)cc1OCC1CC1 [Example 160, (2E)-3-[2-(cyclopropylmethoxy)-4-(2-methoxyethoxy)phenyl]-N-(pentylsulfonyl)acrylamide]
- melting point: 64.8 to 66.3 °C

Compound: CCCCCS(=O)(=O)NC(=O)CCc1ccc(OCCOC)cc1OC1CCCCC1 [Example 164, 3-[2-(cyclohexyloxy)-4-(2-methoxyethoxy)phenyl]-N-(pentylsulfonyl)propanamide]
- melting point: 64.1 to 65.4 °C

Compound: CCCCCS(=O)(=O)NC(=O)CCc1ccc(OCCOC)cc1OCC1CCCO1 (stereo not drawn) [Example 166, 3-[4-(2-methoxyethoxy)-2-(tetrahydrofuran-2-ylmethoxy)phenyl]-N-(pentylsulfonyl)propanamide]
- melting point: 57.8 to 58.9 °C

Compound: CCCCCS(=O)(=O)NC(=O)CCc1ccc(OCCOC)cc1OCC1CC1 [Example 167, 3-[2-(cyclopropylmethoxy)-4-(2-methoxyethoxy)phenyl]-N-(pentylsulfonyl)propanamide]
- melting point: 81.7 to 82.8 °C

Compound: CCCCCS(=O)(=O)NC(=O)CCc1ccc(OCCOC)cc1OCc1ccc(Cl)cc1Cl [Example 169, 3-[2-[(2,4-dichlorobenzyl)oxy]-4-(2-methoxyethoxy)phenyl]-N-(pentylsulfonyl)propanamide]
- melting point: 106.7 to 108.2 °C

Compound: CCCCCS(=O)(=O)NC(=O)CCc1ccc(OCCOC)cc1Oc1ncc(Cl)cc1Cl [Example 171, 3-[2-[(3,5-dichloropyridin-2-yl)oxy]-4-(2-methoxyethoxy)phenyl]-N-(pentylsulfonyl)propanamide]
- melting point: 92.2 to 93.6 °C

Compound: CCCCCS(=O)(=O)NC(=O)/C=C/c1ccc(OCCOC)cc1Oc1cc(C(F)(F)F)ccc1[N+](=O)[O-] [Example 174, (2E)-3-{4-(2-methoxyethoxy)-2-[2-nitro-5-(trifluoromethyl)phenoxy]phenyl}-N-(pentylsulfonyl)acrylamide]
- melting point: 164.5 to 165.2 °C

Compound: CCCCCS(=O)(=O)NC(=O)/C=C/c1ccc(OCCOC)cc1Nc1ccc(C(F)(F)F)cc1 [Example 176, (2E)-3-(4-(2-methoxyethoxy)-2-{[4-(trifluoromethyl)phenyl]amino}phenyl)-N-(pentylsulfonyl)acrylamide]
- melting point: 142.3 to 142.6 °C

Compound: CCCCCS(=O)(=O)NC(=O)/C=C/c1ccc(OCCOC)cc1Cc1ncc(Br)s1 [Example 178, (2E)-3-[2-[(5-bromo-1,3-thiazol-2-yl)methyl]-4-(2-methoxyethoxy)phenyl]-N-(pentylsulfonyl)acrylamide]
- melting point: 88.5 to 89.1 °C

Compound: CCCCCS(=O)(=O)NC(=O)/C=C/c1ccc(OCCOC)cc1Nc1ccc(C(F)(F)F)cc1Cl [Example 184, (2E)-3-[2-{[2-chloro-4-(trifluoromethyl)phenyl]amino}-4-(2-methoxyethoxy)phenyl]-N-(pentylsulfonyl)acrylamide]
- melting point: 173.5 to 174.8 °C

Compound: CCCCCS(=O)(=O)NC(=O)/C=C/c1ccc(OCCOC)cc1Oc1ncc([N+](=O)[O-])cc1C [Example 185, (2E)-3-{4-(2-methoxyethoxy)-2-[(3-methyl-5-nitropyridin-2-yl)oxy]phenyl}-N-(pentylsulfonyl)acrylamide]
- melting point: 148 to 150.3 °C

Compound: CCCCCS(=O)(=O)NC(=O)/C(=C/c1ccc(OCCOC)cc1Oc1ncc(Cl)cc1Cl)CC [Example 188, (2E)-2-[2-[(3,5-dichloropyridin-2-yl)oxy]-4-(2-methoxyethoxy)benzylidene]-N-(pentylsulfonyl)butanamide]
- melting point: 118 to 118.4 °C

Compound: CCCCCS(=O)(=O)NC(=O)/C=C/c1ccc(OCCOC)cc1NC(=O)c1ccc(Cl)cc1Cl [Example 189, 2,4-dichloro-N-(5-(2-methoxyethoxy)-2-{(1E)-3-oxo-3-[(pentylsulfonyl)amino]prop-1-en-1-yl}phenyl)benzamide]
- melting point: 176.8 to 177.1 °C

Compound: CCCCCS(=O)(=O)NC(=O)/C=C/c1ccc(OCCOC)cc1NC(=O)c1ccc(F)cc1F [Example 191, 2,4-difluoro-N-(5-(2-methoxyethoxy)-2-{(1E)-3-oxo-3-[(pentylsulfonyl)-amino]prop-1-en-1-yl}phenyl)benzamide]
- melting point: 140 to 140.8 °C

Compound: CCCCCS(=O)(=O)NC(=O)/C=C/c1ccc(OCCOC)cc1Oc1ncc(NC(=O)OC(C)(C)C)cc1C [Example 192, tert-butyl [6-(5-(2-methoxyethoxy)-2-{(1E)-3-oxo-3-[(pentylsulfonyl)amino]prop-1-en-1-yl}phenoxy)-5-methylpyridin-3-yl]carbamate]
- melting point: 149.5 to 150.2 °C

Compound: CCCCCS(=O)(=O)NC(=O)/C=C/c1ccc(OCCOC(C)=O)cc1Oc1ncc(C(F)(F)F)cc1Cl [Example 194, 2-(3-{[3-chloro-5-(trifluoromethyl)pyridin-2-yl]oxy}-4-{(1E)-3-oxo-3-[(pentylsulfonyl)amino]prop-1-en-1-yl}phenoxy)ethyl acetate]
- melting point: 141 to 144 °C

Compound: CCCCCS(=O)(=O)NC(=O)/C=C/c1ccc(OCC2CCCO2)cc1Oc1ncc(C(F)(F)F)cc1Cl (stereo not drawn) [Example 195, (2E)-3-[2-{[3-chloro-5-(trifluoromethyl)pyridin-2-yl]oxy}-4-(tetrahydrofuran-2-ylmethoxy)phenyl]-N-(pentylsulfonyl)acrylamide]
- melting point: 126.5 to 128.5 °C

Compound: COCOc1cc(/C=C/S(=O)(=O)NC(=O)OC(C)(C)C)n(Cc2ccc(Cl)cc2Cl)n1 [Example 200, tert-butyl-({(E)-2-[1-(2,4-dichlorobenzyl)-3-(methoxymethoxy)-1H-pyrazol-5-yl]vinyl}sulfonyl)carbamate]
- melting point: 139 to 140 °C

Compound: COCCCS(=O)(=O)NC(=O)CCc1ccc(OC(C)C)cc1Oc1ncc(C(F)(F)F)cc1Cl [Example 202, 3-(2-{[3-chloro-5-(trifluoromethyl)pyridin-2-yl]oxy}-4-isopropoxyphenyl)-N-[(3-methoxypropyl)sulfonyl]propanamide]
- melting point: 114 to 115 °C

Compound: COCCOc1ccc(CCCOC(=O)NS(=O)(=O)NCCC(C)C)c(Oc2ncc(C(F)(F)F)cc2Cl)c1 [Example 203, 3-[2-{[3-chloro-5-(trifluoromethyl)pyridin-2-yl]oxy}-4-(2-methoxyethoxy)phenyl]propyl {[(3-methylbutyl)amino]sulfonyl}carbamate]
- melting point: 123 to 123.5 °C

Compound: COCCOc1ccc(CCCOC(=O)NS(=O)(=O)NCCc2ccccc2)c(Oc2ncc(C(F)(F)F)cc2Cl)c1 [Example 206, 3-[2-{[3-chloro-5-(trifluoromethyl)pyridin-2-yl]oxy}-4-(2-methoxyethoxy)phenyl]propyl {[(2-phenylethyl)amino]sulfonyl}carbamate]
- melting point: 110 to 113 °C

Compound: CCCCN(C(=O)CCc1ccc(OCCOC)cc1Oc1ncc(C(F)(F)F)cc1Cl)S(N)(=O)=O [Example 212, N-(aminosulfonyl)-N-butyl-3-[2-{[3-chloro-5-(trifluoromethyl)pyridin-2-yl]oxy}-4-(2-methoxyethoxy)phenyl]propanamide]
- melting point: 102 to 103 °C

Compound: COCCOc1ccc(CCC(=O)N(CCOC)S(N)(=O)=O)c(Oc2ncc(C(F)(F)F)cc2Cl)c1 [Example 213, N-(aminosulfonyl)-3-[2-{[3-chloro-5-(trifluoromethyl)pyridin-2-yl]oxy}-4-(2-methoxyethoxy)phenyl]-N-(2-methoxyethyl)propanamide]
- melting point: 101 to 101.1 °C

Compound: CCCCCNS(=O)(=O)NC(=O)/C=C/c1ccc(OCCOC)cc1Oc1ncc(C(F)(F)F)cc1Cl [Example 215, (2E)-3-[2-{[3-chloro-5-(trifluoromethyl)pyridin-2-yl]oxy}-4-(2-methoxyethoxy)phenyl]-N-[(pentylamino)sulfonyl]acrylamide]
- melting point: 120 to 122 °C
